{"source": "patent US20040152727A1", "about": "“Novel use” (priority 2001, published 2004)", "key": {"rats [1]": {"system": "rats", "experiment": "rat gastric emptying, phenol red method", "assay_type": "in vivo", "settings": "for % GASTRIC EMPTYING: rat, oral"}, "rats [2]": {"system": "rats", "experiment": "gastrointestinal motility in rats, charcoal meal test", "assay_type": "in vivo, rat", "settings": "for effect on gastrointestinal motility in the rat: charcoal meal test; for % CHANGE FROM VEHICLE-TREATED ANIMALS / GROUP MEAN DISTANCE TRAVELLED BY CHARCOAL AS % OF TOTAL GUT LENGTH ± SD: rat, oral", "description": "Thus, the distance travelled by the charcoal meal in each Compound (I)-treated group was similar to the vehicle-treated group at each tested dose."}, "[3]": {"system": "guinea-pig enteric neurones", "experiment": "slow EPSP in guinea-pig enteric neurones", "assay_type": "cell-based", "settings": "0.1 microM", "procedure": "The slowEPSP was elicited by high frequency (20 Hz) electrical stimulation for 1 s, applied to a circumferential internodal strand connecting to the ganglion. […] It was perfused continuously and the slowEPSP was tested at various intervals. In all four neurons there was a decrease of peak amplitude of depolarisation of over 50% when compared with baseline, once the drug had circulated for at least 30 minutes."}, "conscious rats": {"system": "conscious rats", "experiment": "colo-rectal distension in conscious rats (intestinal nociception)", "assay_type": "in vivo, rat"}, "rats [4]": {"system": "rats", "experiment": "small intestinal transit in normal, non-sensitised animals", "assay_type": "in vivo, rat", "settings": "15 mg/kg po"}, "rats [5]": {"system": "rats", "experiment": "egg-albumin sensitized increase in rat small intestinal transit", "assay_type": "in vivo", "settings": "pre-treatment 15 mg/kg po"}, "rat NK-3 receptor": {"target": "T1, rat NK-3 receptor (Rattus norvegicus, UniProt P16177)", "T1 sequence (P16177 1-452)": "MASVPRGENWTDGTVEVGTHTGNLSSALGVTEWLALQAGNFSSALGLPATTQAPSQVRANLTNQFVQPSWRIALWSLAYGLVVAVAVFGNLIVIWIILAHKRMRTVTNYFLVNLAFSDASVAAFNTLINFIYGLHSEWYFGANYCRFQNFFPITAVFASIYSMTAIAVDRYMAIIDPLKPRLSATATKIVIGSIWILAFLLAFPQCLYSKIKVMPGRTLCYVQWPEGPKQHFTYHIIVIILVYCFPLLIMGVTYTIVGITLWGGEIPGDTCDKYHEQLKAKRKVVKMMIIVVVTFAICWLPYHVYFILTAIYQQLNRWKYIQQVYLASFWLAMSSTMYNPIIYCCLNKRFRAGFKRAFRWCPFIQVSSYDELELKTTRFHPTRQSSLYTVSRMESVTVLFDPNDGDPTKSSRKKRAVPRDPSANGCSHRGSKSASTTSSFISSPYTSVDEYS", "experiment": "affinity for the rat NK-3 receptor", "assay_type": "binding", "settings": "relative to its higher affinity for the human or guinea-pig variants"}, "[6]": {"system": "guinea-pig isolated colon", "experiment": "stretch-induced reflex activity in guinea-pig isolated colon", "settings": "250 nM applied for 30-45 min; 6, 12 or 20 g weights; greater at higher distension", "description": "For reflex studies, 5-7 cm lengths of colon were suspended in warmed, oxygenated physiological saline, so that an 8 mm metal bar could be inserted into the lumen and connected, via a thread passing through the intestinal wall, to a pulley system which allowed different weights to pull on the bar and distend the intestine. Force transducers were attached to the wall of the colon via small wire hooks, 5 mm either side of the distending bar. Colonic wall distension using 6, 12 or 20 g weights evoked rhythmic contractions oral to the distension and a small relaxation on the anal side. Application of 12 and 20 g weights evoked similar patterns of activity and although the small relaxation on the anal side of the distension seemed more apparent, the oral excitatory response was not different from the effects of the 6 g weight."}}, "note": "Marks after values point to notes of the source that are not given here.", "data": [{"smiles": "CN1CC[C@]23c4c5ccc(O)c4O[C@H]2[C@@H](O)C=C[C@H]3[C@H]1C5.O=S(=O)(O)O", "note": "[Morphine sulfate, reference compound]", "values": [{"measurement": "effect on rat gastric emptying", "setting": "rats [1]; orally at 20 mg/kg", "value": "marked and statistically significant decrease"}, {"measurement": "% GASTRIC EMPTYING", "setting": "rats [1]; 20 mg/kg", "value": "30.8** %"}, {"measurement": "effect on gastrointestinal motility in the rat", "setting": "rats [2]; oral dose of 10 mg/kg", "value": "marked and statistically significant decrease"}, {"measurement": "% CHANGE FROM VEHICLE-TREATED ANIMALS", "setting": "rats [2]; 10 mg/kg", "value": "−29.4", "unit": "%"}, {"measurement": "GROUP MEAN DISTANCE TRAVELLED BY CHARCOAL AS % OF TOTAL GUT LENGTH ± SD", "setting": "rats [2]; 10 mg/kg", "value": "37.4 ± 12.4", "unit": "%"}]}, {"smiles": "CC[C@H](NC(=O)c1c(O)c(-c2ccccc2)nc2ccccc12)c1ccccc1", "note": "[Compound (I), (S)-N-(α-ethylbenzyl)-3-hydroxy-2-phenylquinoline-4-carboxamide]", "values": [{"measurement": "effect on rat gastric emptying", "setting": "rats [1]; oral doses of 5, 15 and 50 mg/kg", "value": "no marked or statistically significant effects"}, {"measurement": "% GASTRIC EMPTYING", "setting": "rats [1]; 5 mg/kg", "value": 55.2, "unit": "%"}, {"measurement": "% GASTRIC EMPTYING", "setting": "rats [1]; 15 mg/kg", "value": 50.7, "unit": "%"}, {"measurement": "% GASTRIC EMPTYING", "setting": "rats [1]; 50 mg/kg", "value": 62.4, "unit": "%"}, {"measurement": "decrease of peak amplitude of depolarisation of slowEPSP compared with baseline", "setting": "[3]; circulated at least 30 minutes, all four neurons", "value": "over 50%"}, {"measurement": "blockade of slowEPSP", "setting": "[3]; one neuron", "value": 100, "unit": "%"}, {"measurement": "blockade of slowEPSP based on the amplitude of depolarisation", "setting": "[3]; the other three neurons", "value": "60-80%"}, {"measurement": "antinociceptive effect during colo-rectal distension", "setting": "conscious rats; 10 mg/kg po", "value": "without anti-nociceptive activity"}, {"measurement": "antinociceptive effect during colo-rectal distension", "setting": "conscious rats; 30 mg/kg po", "value": "statistically significant only at the highest distension pressure"}, {"measurement": "effect on colo-rectal tone", "setting": "conscious rats; 50 mg/kg po", "value": "without affecting colo-rectal tone"}, {"measurement": "antinociceptive effect during colo-rectal distension", "setting": "conscious rats; 50 mg/kg po, 30, 45 and 60 mmHg distension pressures", "value": "significant antinociceptive effect"}, {"measurement": "effect on small intestinal transit", "setting": "rats [4]", "value": "did not significantly affect"}, {"measurement": "effect on increased transit after egg-albumin sensitisation", "setting": "rats [5]", "value": "greatly inhibited"}, {"measurement": "effect on gastrointestinal motility in the rat", "setting": "rats [2]; oral, 5, 15 and 50 mg/kg", "value": "no marked or statistically significant effect"}, {"measurement": "% CHANGE FROM VEHICLE-TREATED ANIMALS", "setting": "rats [2]; 5 mg/kg", "value": "−11.5", "unit": "%"}, {"measurement": "GROUP MEAN DISTANCE TRAVELLED BY CHARCOAL AS % OF TOTAL GUT LENGTH ± SD", "setting": "rats [2]; 5 mg/kg", "value": "46.9 ± 5.3", "unit": "%"}, {"measurement": "% CHANGE FROM VEHICLE-TREATED ANIMALS", "setting": "rats [2]; 15 mg/kg", "value": "−1.7", "unit": "%"}, {"measurement": "GROUP MEAN DISTANCE TRAVELLED BY CHARCOAL AS % OF TOTAL GUT LENGTH ± SD", "setting": "rats [2]; 15 mg/kg", "value": "52.1 ± 7.1", "unit": "%"}, {"measurement": "% CHANGE FROM VEHICLE-TREATED ANIMALS", "setting": "rats [2]; 50 mg/kg", "value": "−4.9", "unit": "%"}, {"measurement": "GROUP MEAN DISTANCE TRAVELLED BY CHARCOAL AS % OF TOTAL GUT LENGTH ± SD", "setting": "rats [2]; 50 mg/kg", "value": "50.4 ± 8.6", "unit": "%"}, {"measurement": "affinity for the rat NK-3 receptor", "setting": "rat NK-3 receptor", "value": "low affinity"}, {"measurement": "effect on reflexes evoked by colonic wall distension", "setting": "[6]", "value": "reduced the effects of distension"}]}]}
